{
  "source": "patent US20240010646A1",
  "about": "“Urea Co-Crystal of Apixaban, and Preparation Method Therefor” (CHENGDU EASTON BIOPHARMACEUTICALS CO., LTD., priority 2021, published 2024)",
  "key": {"[1]": {"test": "Equilibrium solubility test (saturated solutions, external standard method)", "assay_type": "physicochemical"}, "[2]": {"test": "Stability test (high temperature, light irradiation, long-term and accelerated storage)", "assay_type": "physicochemical"}, "[3]": {"test": "In vivo pharmacokinetic test in rat, single oral administration, plasma LC/MS/MS", "design": "species or system SD rats", "conditions": "for AUClast / Cl_F_obs / Cmax / MRT / T1/2 / Tmax / AUC(0-t) / half-life: corn oil suspension, 4 mL/kg", "description": "18 SD rats with 9 male rats and 9 female rats, weighing 220-240 g, purchased by Chengdu Ensiweier Biotechnology Co., Ltd. from Hunan SJA Laboratory Animal Co., Ltd, License: SCXK (Xiang) 2019-0004.\nAfter the test drugs were prepared into […] uniform suspensions with corn oil, they were immediately administered orally to rats at 4 mL/kg, and 0.1 mL of blood was sampled from the jugular vein before the administration and 15 min, 30 min, 1 h, 2 h, 3 h, 4 h, 5 h, 6 h, 7 h, 8 h and 24 h after the administration, placed in EDTA-K2 tubes and centrifuged at 3000 r/min for 10 min. The plasma was separated and stored by freezing at −80° C. in refrigerator.\n50 μL of plasma was taken and evenly mixed with 5 μL of working solution or blank diluent, 150 μL of the internal-standard acetonitrile-containing precipitant was added thereto, which was shaken with vortex for 2 min, and centrifuged at 12000 r/min for 10 min. 2 μL of Supernatant was taken and mixed with 200 μL of pure water: acetonitrile (1:1), and then the resultant sample was injected with a volume of 3 μL for analysis."}, "[4]": {"conditions": "female rats, listed as The urea co-crystal A"}, "[5]": {"conditions": "male rats, listed as The urea co-crystal A"}, "[6]": {"conditions": "female rats, listed as Crystalline form N-1"}, "[7]": {"conditions": "female, Sprague-Dawley (SD), rat, plasma, po, 1.25 mg/kg, female rats"}, "[8]": {"conditions": "male, Sprague-Dawley (SD), rat, plasma, po, 1.25 mg/kg, male rats"}},
  "note": "Read-outs that look alike come from different tables or passages of the source.",
  "data": [
    {"smiles": "COc1ccc(-n2nc(C(N)=O)c3c2C(=O)N(c2ccc(N4CCCCC4=O)cc2)CC3)cc1", "note": "[Co-crystal A]", "values": [
      {"measurement": "solubility", "setting": "[1]; hydrochloric acid pH 1.0 (0.1N), 25° C.", "result": 48.62, "unit": "µg/mL"},
      {"measurement": "solubility", "setting": "[1]; hydrochloric acid pH 1.0 (0.1N), 37° C.", "result": 57.33, "unit": "µg/mL"},
      {"measurement": "solubility", "setting": "[1]; phosphate buffer pH 6.8, 37° C.", "result": 42.74, "unit": "µg/mL"},
      {"measurement": "solubility", "setting": "[1]; phosphate buffer, 25 °C, pH 6.8, aqueous buffer, thermodynamic from solid, phosphate buffer pH 6.8, 25° C., read-out: Solubility", "result": 37.2, "unit": "µg/mL"},
      {"measurement": "solubility", "setting": "[1]; pure water, 25° C.", "result": 55.78, "unit": "µg/mL"},
      {"measurement": "solubility", "setting": "[1]; pure water, 37° C.", "result": 67.98, "unit": "µg/mL"},
      {"measurement": "Purity %", "setting": "[2]; 25 ± 2° C., 60 ± 5% RH, 6 months", "result": 99.92, "unit": "%"},
      {"measurement": "Purity %", "setting": "[2]; 25 ± 2° C., 60 ± 5% RH, Start", "result": 99.93, "unit": "%"},
      {"measurement": "Purity %", "setting": "[2]; 40 ± 2° C., 75 ± 5% RH, 6 months", "result": 99.92, "unit": "%"},
      {"measurement": "Purity %", "setting": "[2]; 40 ± 2° C., 75 ± 5% RH, Start", "result": 99.93, "unit": "%"},
      {"measurement": "Purity %", "setting": "[2]; High Temperature (60° C.), 1 month", "result": 99.92, "unit": "%"},
      {"measurement": "Purity %", "setting": "[2]; High Temperature (60° C.), Start", "result": 99.93, "unit": "%"},
      {"measurement": "Purity %", "setting": "[2]; Light Irradiation, 1 month", "result": 99.93, "unit": "%"},
      {"measurement": "Purity %", "setting": "[2]; Light Irradiation, Start", "result": 99.93, "unit": "%"},
      {"measurement": "Crystalline form stability", "setting": "[2]; all study conditions", "result": "good crystalline form stability"},
      {"measurement": "Increase of bioavailability compared with crystalline form N-1", "setting": "[3]; female rats", "result": 21, "unit": "%"},
      {"measurement": "Increase of bioavailability compared with the urea co-crystal IV from HEC Pharm Co., Ltd", "setting": "[3]; female rats", "result": 44.98, "unit": "%"},
      {"measurement": "AUClast", "setting": "[3]; [4]", "result": "33636 ± 8113", "unit": "ng·h/mL"},
      {"measurement": "Cl_F_obs", "setting": "[3]; [4]", "result": "7.2 ± 1.9", "unit": "mL/day/kg"},
      {"measurement": "Cmax", "setting": "[3]; [4]", "result": "4653 ± 763", "unit": "ng/mL"},
      {"measurement": "MRT", "setting": "[3]; [4]", "result": "5.55 ± 0.61", "unit": "h"},
      {"measurement": "T1/2", "setting": "[3]; [4]", "result": "4.49 ± 0.10", "unit": "h"},
      {"measurement": "Tmax", "setting": "[3]; [4]", "result": "1.08 ± 0.72", "unit": "h"},
      {"measurement": "Increase of bioavailability compared with crystal form N-1", "setting": "[3]; male rats", "result": 29.36, "unit": "%"},
      {"measurement": "Increase of bioavailability compared with the urea co-crystal IV from HEC Pharm Co., Ltd", "setting": "[3]; male rats", "result": 49.94, "unit": "%"},
      {"measurement": "AUClast", "setting": "[3]; [5]", "result": "25567 ± 14447", "unit": "ng·h/mL"},
      {"measurement": "Cl_F_obs", "setting": "[3]; [5]", "result": "10.8 ± 4.8", "unit": "mL/day/kg"},
      {"measurement": "Cmax", "setting": "[3]; [5]", "result": "7970 ± 4475", "unit": "ng/mL"},
      {"measurement": "MRT", "setting": "[3]; [5]", "result": "4.16 ± 0.41", "unit": "h"},
      {"measurement": "T1/2", "setting": "[3]; [5]", "result": "5.53 ± 2.98", "unit": "h"},
      {"measurement": "Tmax", "setting": "[3]; [5]", "result": "1.00 ± 0.00", "unit": "h"}
    ]},
    {"smiles": "COc1ccc(-n2nc(C(N)=O)c3c2C(=O)N(c2ccc(N4CCCCC4=O)cc2)CC3)cc1", "note": "[N-1, 1-(4-methoxyphenyl)-7-oxo-6-(4-(2-oxopiperidin-1-yl)phenyl)-4,5,6,7-tetrahydr o-1H-pyrazolo[3,4-c]pyridine-3-carboxamide, reference compound]", "values": [
      {"measurement": "solubility", "setting": "[1]; hydrochloric acid (0.1N), 25 °C, pH 1, simulated gastric fluid, thermodynamic from solid, hydrochloric acid pH 1.0 (0.1N), 25° C., read-out: Solubility", "result": 31.4, "unit": "µg/mL"},
      {"measurement": "solubility", "setting": "[1]; hydrochloric acid (0.1N), 37 °C, pH 1, simulated gastric fluid, thermodynamic from solid, hydrochloric acid pH 1.0 (0.1N), 37° C., read-out: Solubility", "result": 38.4, "unit": "µg/mL"},
      {"measurement": "solubility", "setting": "[1]; phosphate buffer pH 6.8, 25° C.", "result": 22.09, "unit": "µg/mL"},
      {"measurement": "solubility", "setting": "[1]; phosphate buffer, 37 °C, pH 6.8, aqueous buffer, thermodynamic from solid, phosphate buffer pH 6.8, 37° C., read-out: Solubility", "result": 29.4, "unit": "µg/mL"},
      {"measurement": "solubility", "setting": "[1]; pure water, 25 °C, water, thermodynamic from solid, pure water, 25° C., read-out: Solubility", "result": 36.7, "unit": "µg/mL"},
      {"measurement": "solubility", "setting": "[1]; pure water, 37 °C, water, thermodynamic from solid, pure water, 37° C., read-out: Solubility", "result": 49.2, "unit": "µg/mL"},
      {"measurement": "Cl_F_obs", "setting": "[3]; [6]", "result": 13.4, "unit": "mL/day/kg"},
      {"measurement": "Tmax", "setting": "[3]; [6]", "result": "5.83 ± 3.75", "unit": "h"},
      {"measurement": "AUC(0-t)", "setting": "[3]; [7]", "result": "27800 ± 13000", "unit": "ng·h/mL"},
      {"measurement": "half-life", "setting": "[3]; [7]", "result": 6.83, "unit": "h"},
      {"measurement": "Cmax", "setting": "[3]; female, Sprague-Dawley (SD), rat, plasma, po, 1.25 mg/kg, female rats, read-out: Cmax", "result": "2570 ± 999", "unit": "ng/mL"},
      {"measurement": "MRT", "setting": "[3]; female, Sprague-Dawley (SD), rat, plasma, po, 1.25 mg/kg, female rats, read-out: MRT", "result": "7.37 ± 1.79", "unit": "h"},
      {"measurement": "Cl_F_obs", "setting": "[3]; male rats, listed as Crystalline form N-1", "result": "15.4 ± 7.68", "unit": "mL/day/kg"},
      {"measurement": "AUC(0-t)", "setting": "[3]; [8]", "result": "19800 ± 14000", "unit": "ng·h/mL"},
      {"measurement": "half-life", "setting": "[3]; [8]", "result": "5.05 ± 1.43", "unit": "h"},
      {"measurement": "Cmax", "setting": "[3]; male, Sprague-Dawley (SD), rat, plasma, po, 1.25 mg/kg, male rats, read-out: Cmax", "result": "4090 ± 3250", "unit": "ng/mL"},
      {"measurement": "MRT", "setting": "[3]; male, Sprague-Dawley (SD), rat, plasma, po, 1.25 mg/kg, male rats, read-out: MRT", "result": "4.78 ± 0.75", "unit": "h"},
      {"measurement": "Tmax", "setting": "[3]; male, Sprague-Dawley (SD), rat, plasma, po, 1.25 mg/kg, male rats, read-out: Tmax", "result": "1 ± 0.87", "unit": "h"}
    ]}
  ]
}
